Reference: PMC4671662, “Identification of New Molecular Entities (NMEs) as Potential Leads against Tuberculosis from Open Source Compound Repository” (PLoS ONE, 2015)
Converted amounts (≈) assume the structure as drawn. Like-named read-outs stand apart in the source and are kept apart here.

Experiments:
M. tuberculosis (H37Rv) = M. tuberculosis (H37Rv) inhibition assay, Alamar Blue MIC; format: cell-based; conditions: Mycobacterium tuberculosis, 168 h, six days + 24 h
[1] = system: Mycobacterium smegmatis (mc^2155); assay: Antimycobacterial assay, turbidometric MIC (OD 600 nm); format: cell-based; conditions: Mycolicibacterium smegmatis, read-out: M. smeg MIC
[2] = system: HepG2 (human hepatoma cells); assay: Sulforhodamine B (SRB) cytotoxicity assay; format: cell-based; conditions: 48 h
[3] = system: Mycobacterium bovis (BCG); assay: microbe, parasite or virus in culture; format: cell-based; conditions: Mycobacterium tuberculosis variant bovis BCG, 96 h, read-out: BCG MIC
Mycobacterium = assay: Minimum Bactericidal Concentration (MBC) test, CFU approach; format: cell-based; conditions: for Bacteriocidal/Bacteriostatic: from comparison of MIC and MBC; for MBC compared with MIC: against the test organisms of the study
[4] = system: A549 (human lung epithelial cells); assay: Sulforhodamine B (SRB) cytotoxicity assay; format: cell-based; conditions: 48 h
M. smegmatis (MC^2 155) = assay: M. smegmatis primary screening, z-score; format: cell-based, Mycobacterium smegmatis; conditions: positive controls in primary screening
[5] = system: Campylobacter fetus subsp. jejuni; conditions: cited from earlier work
MCF-7 = system: MCF-7; set-up: method as in PMID 18507473; conditions: cited from earlier work
SF-264 = system: SF-264; set-up: method as in PMID 18507473; conditions: cited from earlier work
NCI-H460 = system: NCI-H460; set-up: method as in PMID 18507473; conditions: cited from earlier work
[6] = MC^2155, lowest concentration with 90% growth inhibition, 32 hours

Molecule | MIC (M. tuberculosis (H37Rv)) | MIC [1, 6] | IC50 [2] | MIC [3] | Bacteriocidal/Bacteriostatic (Mycobacterium) | IC50 [4] | MBC compared with MIC (Mycobacterium) | MIC ([1]; MC^2155, 32 h) | mean z-score (M. smegmatis (MC^2 155)) | MBC [5] | MIC [5] | IC50 (MCF-7) | IC50 (SF-264) | IC50 (NCI-H460)
O=C(Cn1c(=O)n(Cc2ccc(F)cc2)c(=O)c2ccccc21)Nc1cc(F)ccc1F [Compound H137] | 12.5 µM | 39.2 µM (≈ 17.2 µg/mL) | 390 µM | 22.8 µM (≈ 10 µg/mL) | Bacteriostatic | 385 µM | – | – | – | – | – | – | – | –
N#Cc1ccc(C(=O)CC2(O)c3ccccc3-n3c2nc2ccccc2c3=O)cc1 (stereo not shown) [Compound H27] | 1.56 µM | 12.8 µM (≈ 5.05 µg/mL) | 444 µM | 6.58 µM (≈ 2.59 µg/mL) | Bacteriostatic | 902 µM | – | – | – | – | – | – | – | –
Cc1ccc(-c2nc3ccccc3s2)cc1 [Compound H117] | 12.5 µM | 26.8 µM (≈ 6.04 µg/mL) | 408 µM | 14.9 µM (≈ 3.36 µg/mL) | Bacteriostatic | 475 µM | – | – | – | – | – | – | – | –
Nc1ccc(C(=O)CSc2nnc3c(n2)CCCC3)cc1 [Compound H134] | 12.5 µM | 22.7 µM (≈ 6.82 µg/mL) | 368 µM | 10.9 µM (≈ 3.27 µg/mL) | Bacteriostatic | 424 µM | – | – | – | – | – | – | – | –
Nc1ccc(C(=O)CC2(O)c3ccccc3-n3c2nc2ccccc2c3=O)cc1 (stereo not shown) [Compound H136] | 1.6 µM | 42.5 µM (≈ 16.3 µg/mL) | 359 µM | 11.4 µM (≈ 4.37 µg/mL) | bactericidal activity | 321 µM | MBC values equivalent to their MIC values | – | – | – | – | – | – | –
COc1cccc2c1C(=O)c1c(O)c3c(c(O)c1C2=O)C[C@@](O)(C(=O)CO)C[C@@H]3O[C@H]1C[C@H](N)[C@H](O)[C@H](C)O1 [Doxorubicin, reference compound] | – | – | 4.6 µM | – | – | 5.2 µM | – | – | – | – | – | – | – | –
NNC(=O)c1ccncc1 [Isoniazid, reference compound] | – | – | – | – | – | – | – | 11 µM (≈ 1.51 µg/mL) | 4.9 | – | – | – | – | –
Cc1ccc(C)c(Cn2nnc3c(O)nc(C4CCCN(C(=O)c5ccc(C(C)(C)C)cc5)C4)nc32)c1 (stereo not shown) [Compound H126] | 12.5 µM | 30.6 µM (≈ 15.3 µg/mL) | 357 µM | 23.8 µM (≈ 11.9 µg/mL) | Bacteriostatic | 369 µM | – | – | – | – | – | – | – | –
COc1cc2c(cc1NC(=O)N1CCCCC1c1cccnc1)oc1ccccc12 (stereo not shown) [Compound H15] | 12.5 µM | 42 µM (≈ 16.9 µg/mL) | 510 µM | 12 µM (≈ 4.83 µg/mL) | Bacteriostatic | 526 µM | – | – | – | – | – | – | – | –
co-trimoxazole | – | – | – | – | – | – | – | – | – | 125 µg/mL | 31.2 µg/mL | – | – | –
CO[C@H]1/C=C/O[C@@]2(C)Oc3c(C)c(O)c4c(O)c(c(/C=N/N5CCN(C)CC5)c(O)c4c3C2=O)NC(=O)/C(C)=C\C=C\[C@H](C)[C@H](O)[C@@H](C)[C@@H](O)[C@@H](C)[C@H](OC(C)=O)[C@@H]1C [Rifampicin, reference compound] | – | – | – | – | – | – | – | 2.43 µM (≈ 2 µg/mL) | 4.4 | – | – | – | – | –
Cc1nc(C)c(C(=O)N(c2cccc(C)c2C)C(C(=O)NC2CCCCC2)c2ccccc2)s1 (stereo not shown) [Compound H85] | 12.5 µM | 25.1 µM (≈ 12 µg/mL) | 790 µM | 11.5 µM (≈ 5.47 µg/mL) | Bacteriostatic | 497 µM | – | – | – | – | – | – | – | –
O=C(CC1(O)c2ccccc2-n2c1nc1ccccc1c2=O)c1ccccc1 (stereo not shown) [Compound H26] | 0.4 µM | 53 µM (≈ 19.5 µg/mL) | 417 µM | 12 µM (≈ 4.44 µg/mL) | bactericidal activity | 368 µM | MBC values equivalent to their MIC values | – | – | – | – | > 50 µM | > 50 µM | > 50 µM
O=C(CSc1nnc2scc(-c3ccccc3)n12)Nc1ccc(N2CCCC2)cc1 [Compound H127] | 12.5 µM | 46.6 µM (≈ 20.3 µg/mL) | 348 µM | 14.2 µM (≈ 6.19 µg/mL) | Bacteriostatic | 411 µM | – | – | – | – | – | – | – | –
O=C(CSc1nnc(COc2ccc(F)cc2)o1)OC1CCCCC1 [Compound H43] | 6.28 µM | 52 µM (≈ 19 µg/mL) | 373 µM | 13.5 µM (≈ 4.96 µg/mL) | Bacteriostatic | 335 µM | – | – | – | – | – | – | – | –
CCSc1nsc(NC(=O)Nc2ccc(C(F)(F)F)cc2)n1 [Compound H94] | 6.25 µM | 25.4 µM (≈ 8.83 µg/mL) | 599 µM | 12.7 µM (≈ 4.42 µg/mL) | Bacteriostatic | 443 µM | – | – | – | – | – | – | – | –
